Molecules are shown by their SMILES. Structures can show the parent of a compound that is named as a salt.

The results in this text go back to patent US6706757B2, “Chroman derivatives as 5-hydroxytryptamine-6 ligands” (Wyeth, priority 2001, dated 2004).

The target in this assay is T1, human cloned 5-HT6 receptors (Homo sapiens, UniProt P50406).
T1 construct: expressed in transfected cells; host or cells: HeLa cells (membrane preparation)
T1 sequence (P50406 whole entry): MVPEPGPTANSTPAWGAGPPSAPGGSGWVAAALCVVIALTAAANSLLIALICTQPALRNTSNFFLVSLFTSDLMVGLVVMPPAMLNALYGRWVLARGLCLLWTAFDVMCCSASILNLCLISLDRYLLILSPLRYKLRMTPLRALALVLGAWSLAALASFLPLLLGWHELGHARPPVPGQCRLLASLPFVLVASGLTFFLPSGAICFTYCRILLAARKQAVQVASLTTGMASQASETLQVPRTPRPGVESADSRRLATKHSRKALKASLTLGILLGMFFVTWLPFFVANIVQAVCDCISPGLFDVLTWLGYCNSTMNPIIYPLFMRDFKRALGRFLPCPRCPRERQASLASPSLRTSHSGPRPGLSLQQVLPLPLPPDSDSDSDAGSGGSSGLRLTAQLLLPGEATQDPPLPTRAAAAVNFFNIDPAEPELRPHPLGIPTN
Description: 5-HT6 binding affinity, [3H]-LSD displacement on membranes of Hela cells expressing human cloned 5-HT6 receptors. The note with it: [3H]-LSD 3.0 nM, Hela cell membranes, 120 min at room temperature. On the procedure: The affinity of test compounds for the serotonin 5-HT6 receptor is evaluated in the following manner. Cultured Hela cells expressing human cloned 5-HT6 receptors are harvested and centrifuged at low speed (1,000×g) for 10.0 min to remove the culture media. The harvested cells are suspended in half volume of fresh physiological phosphate buffered saline solution and recentrifuged at the same speed. This operation is repeated. The collected cells are then homogenized in ten volumes of 50 mM Tris.HCl (pH 7.4) and 0.5 mM EDTA. The homogenate is centrifuged at 40,000×g for 30.0 min and the precipitate is collected. The obtained pellet is resuspended in 10 volumes of Tris.HCl buffer and recentrifuged at the same speed. The final pellet is suspended in a small volume of Tris.HCl buffer and the tissue protein content is determined in aliquots of 10-25 μl volumes. Bovine Serum Albumin is used as the standard in the protein determination according to the method described in Lowry et al., J. Biol. Chem., 193:265 (1951). The volume of the suspended cell membranes is adjusted to give a tissue protein concentration of 1.0 mg/ml of suspension. The prepared membrane suspension (10 times concentrated) is aliquoted in 1.0 ml volumes and stored at −70° C. until used in subsequent binding experiments.
Binding experiments are performed in a 96 well microtiter plate format, in a total volume of 200 μl. […] The test compounds are added in 20.0 μl volume.
The reaction is allowed to proceed in the dark for 120 min at room temperature, at which time, the bound ligand-receptor complex is filtered off on a 96 well unifilter with a Packard Filtermate® 196 Harvester. The bound complex caught on the filter disk is allowed to air dry and the radioactivity is measured in a Packard TopCount® equipped with six photomultiplier detectors, after the addition of 40.0 μl Microscint®-20 scintillant to each shallow well. The unifilter plate is heat-sealed and counted in a PackardTopCount® with a tritium efficiency of 31.0%.
Binding in the presence of varying concentrations of test compound is expressed as a percentage of specific binding in the absence of test compound. The results are plotted as log % bound versus log concentration of test compound. […] A linear regression line of data points is plotted, from which the IC50 value is determined and the Ki value is determined based upon the following equation: […]
where L is the concentration of the radioactive ligand used and KD is the dissociation constant of the ligand for the receptor, both expressed in nM.
One may read the Ki as the dissociation constant of the complex between target and ligand, obtained from inhibition or displacement. A higher Ki goes with weaker binding. Take `O=S(=O)(Nc1ccc2c(c1)OC(CNC(Cc1ccccc1)c1ccccc1)CC2)c1ccccc1` (stereo not drawn) [Example 17, N-(2-{[(1,2-diphenylethyl)amino]methyl}-3,4-dihydro-2H-chromen-7-yl)benzenesulfonamide]: the Ki stood at 84 nM. The same measure for `O=S(=O)(Nc1ccc2c(c1)OC(CNCCCO)CC2)c1ccccc1` (stereo not drawn) [Example 5, N-{2-[(3-Hydroxypropylamino)-methyl]chroman-7-yl}benzenesulfonamide Hemifumarate salt]: 5 nM; for `O=S(=O)(Nc1ccc2c(c1)OC(CNCc1cccnc1)CC2)c1ccccc1` (stereo not drawn) [Example 12, N-(2-{[(pyridin-3-ylmethyl)amino]methyl}-3,4-dihydro-2H-chromen-7-yl)benzenesulfonamide]: 5 nM. The value for `O=S(=O)(Nc1ccc2c(c1)OC(CNC1CCc3ccccc31)CC2)c1ccccc1` (stereo not drawn) [Example 13, N-{2-[(2,3-dihydro-1H-inden-1-ylamino)methyl]-3,4-dihydro-2H-chromen-7-yl}benzenesulfonamide] was 7 nM. For the compound `C[C@@H](NCC1CCc2ccc(N(C)S(=O)(=O)c3ccc(F)cc3)cc2O1)c1ccccc1` (stereo partly drawn) [Example 52, 4-fluoro-N-methyl-N-[2-({[(1R)-1-phenylethyl]amino}methyl)-3,4-dihydro-2H-chromen-7-yl]benzenesulfonamide], the affinity, expressed as Ki, was 7 nM.

In turn, `O=S(=O)(Nc1ccc2c(c1)OC(CNCCCO)CC2)c1ccc2ccccc2c1` (stereo not drawn) [Example 28, N-(2-{[(3-Hydroxypropyl)amino]methyl}-3,4-dihydro-2H-chromen-7-yl)naphthalene-2-sulfonamide] gave an inhibition constant (Ki) of 5 nM. The value for `O=S(=O)(Nc1ccc2c(c1)OC(CNCCCOc1ccccc1)CC2)c1ccccc1` (stereo not drawn) [Example 9, N-(2-{[(3-phenoxypropyl)amino]methyl}-3,4-dihydro-2H-chromen-7-yl)benzenesulfonamide] was 2 nM; that for `C[C@@H](NCC1CCc2ccc(NS(=O)(=O)c3cccc4ccccc34)cc2O1)c1ccccc1` (stereo partly drawn) [Example 41, N-[2-({[(1R)-1-phenylethyl]amino}methyl)-3,4-dihydro-2H-chromen-7-yl]naphthalene-1-sulfonamide] was 4 nM. The same measure for `COc1ccc(S(=O)(=O)Nc2ccc3c(c2)OC(CN[C@H](C)c2ccccc2)CC3)cc1` (stereo partly drawn) [Example 39, 4-methoxy-N-[2-({[(1R)-1-phenylethyl]amino}methyl)-3,4-dihydro-2H-chromen-7-yl]benzenesulfonamide]: 10 nM; for `C[C@@H](NCC1CCc2ccc(N(C)S(=O)(=O)c3ccc(N)cc3)cc2O1)c1ccccc1` (stereo partly drawn) [Example 56, 4-amino-N-methyl-N-[2-({[(1R)-1-phenylethyl]amino}methyl)-3,4-dihydro-2H-chromen-7-yl]benzenesulfonamide]: 4 nM; for `CC(C)CCCC(C)NCC1CCc2ccc(NS(=O)(=O)c3ccccc3)cc2O1` (stereo not drawn) [Example 21, N-(2-{[(1,5-dimethylhexyl)amino]methyl}-3,4-dihydro-2H-chromen-7-yl)benzenesulfonamide]: 8 nM. The value for `CC1CCCC(C)N1CC1CCc2ccc(NS(=O)(=O)c3ccccc3)cc2O1` (stereo not drawn) [Example 24, N-{2-[(2,6-dimethylpiperidin-1-yl)methyl]-3,4-dihydro-2H-chromen-7-yl}benzenesulfonamide] was 72 nM; that for `C[C@@H](NCC1CCc2ccc(NS(=O)(=O)c3ccccc3)cc2O1)c1ccccc1` (stereo partly drawn) [Example 10, N-[2-({[(1R)-1-phenylethyl]amino}methyl)-3,4-dihydro-2H-chromen-7-yl]benzenesulfonamide] was 1 nM. As for `C[C@@H](NCC1CCc2ccc(NS(=O)(=O)c3ccccc3)cc2O1)C1CCCCC1` (stereo partly drawn) [Example 27, N-[2-({[(1R)-1-cyclohexylethyl]amino}methyl)-3,4-dihydro-2H-chromen-7-yl]benzenesulfonamide], the affinity, expressed as Ki, was 7 nM. The same measure for `C[C@@H](NCC1CCc2ccc(NS(=O)(=O)c3ccc(Cl)cc3)cc2O1)c1ccccc1` (stereo partly drawn) [Example 38, 4-chloro-N-[2-({[(1R)-1-phenylethyl]amino}methyl)-3,4-dihydro-2H-chromen-7-yl]benzenesulfonamide]: 5 nM; for `C[C@@H](NCC1CCc2ccc(NS(=O)(=O)c3c(Cl)nc4sccn34)cc2O1)c1ccccc1` (stereo partly drawn) [Example 33, 6-chloro-N-[2-({[(1R)-1-phenylethyl]amino}methyl)-3,4-dihydro-2H-chromen-7-yl]imidazo[2,1-b][1,3]thiazole-5-sulfonamide]: 3 nM; for `O=S(=O)(Nc1ccc2c(c1)OC(CN[C@@H](CO)c1ccccc1)CC2)c1ccccc1` (stereo partly drawn) [Example 16, N-[2-({[(1R)-2-hydroxy-1-phenylethyl]amino}methyl)-3,4-dihydro-2H-chromen-7-yl]benzenesulfonamide]: 5 nM. Compound `C[C@@H](NCC1CCc2ccc(NS(=O)(=O)c3ccc(OC(F)(F)F)cc3)cc2O1)c1ccccc1` (stereo partly drawn) [Example 40, N-[2-({[(1R)-1-phenylethyl]amino}methyl)-3,4-dihydro-2H-chromen-7-yl]-4-(trifluoromethoxy)benzenesulfonamide] displayed a Ki of 11 nM. The value for `CC(C)(CO)NCC1CCc2ccc(NS(=O)(=O)c3ccccc3)cc2O1` (stereo not drawn) [Example 18, N-(2-{[(2-hydroxy-1,1-dimethylethyl)amino]methyl}-3,4-dihydro-2H-chromen-7-yl)benzenesulfonamide] was 41 nM. The value for `C[C@@H](NCC1CCc2ccc(NS(=O)(=O)c3ccc(Br)s3)cc2O1)c1ccccc1` (stereo partly drawn) [Example 34, 5-bromo-N-[2-({[(1R)-1-phenylethyl]amino}methyl)-3,4-dihydro-2H-chromen-7-yl]-2-thiophenesulfonamide] was 5 nM.

`C[C@@H](NC[C@H]1CCc2ccc(NS(=O)(=O)c3ccccc3)cc2O1)c1ccccc1` [Example 45A]: the affinity corresponds to a Ki of 1 nM. Against the preceding compound, the Ki is about 5-fold lower. The value for `COc1ccc(S(=O)(=O)Nc2ccc3c(c2)OC(CNCCCO)CC3)cc1` (stereo not drawn) [Example 29, N-(2-{[(3-hydroxypropyl)amino]methyl}-3,4-dihydro-2H-chromen-7-yl)-4-methoxybenzenesulfonamide] was 39 nM. The same measure for `COc1ccc(S(=O)(=O)N(C)c2ccc3c(c2)OC(CN[C@H](C)c2ccccc2)CC3)cc1OC` (stereo partly drawn) [Example 54, 3,4-dimethoxy-N-methyl-N-[2-({[(1R)-1-phenylethyl]amino}methyl)-3,4-dihydro-2H-chromen-7-yl]benzenesulfonamide]: 11 nM; for `O=S(=O)(Nc1ccc2c(c1)OC(CN1CCOCC1)CC2)c1ccccc1` (stereo not drawn) [Example 25, N-[2-(morpholin-4-ylmethyl)-3,4-dihydro-2H-chromen-7-yl]benzenesulfonamide]: 26 nM; for `C[C@@H](NCC1CCc2ccc(NS(=O)(=O)c3ccc(N)cc3)cc2O1)c1ccccc1` (stereo partly drawn) [Example 44, 4-amino-N-[2-({[(1R)-1-phenylethyl]amino}methyl)-3,4-dihydro-2H-chromen-7-yl]benzenesulfonamide]: 1 nM.

In the case of `C[C@@H](NCC1CCc2ccc(N(C)S(=O)(=O)c3cccc4ccccc34)cc2O1)c1ccccc1` (stereo partly drawn) [Example 55, N-methyl-N-[2-({[(1R)-1-phenylethyl]amino}methyl)-3,4-dihydro-2H-chromen-7-yl]naphthalene-1-sulfonamide], affinity was put at a Ki of 4 nM. This Ki is about 4-fold higher than that of the compound before.

`O=S(=O)(Nc1ccc2c(c1)OC(CN1CCSCC1)CC2)c1ccccc1` (stereo not drawn) [Example 26, N-[2-(thiomorpholin-4-ylmethyl)-3,4-dihydro-2H-chromen-7-yl]benzenesulfonamide] yielded a Ki of 9 nM. Against the preceding compound, the Ki is about 2.2-fold higher. Consider `O=S(=O)(Nc1ccc2c(c1)OC(CNCc1ccccc1)CC2)c1ccccc1` (stereo not drawn) [Example 8, N-{2-[(benzylamino)methyl]-3,4-dihydro-2H-chromen-7-yl}benzenesulfonamide], for which the Ki came to 2 nM. This Ki is about 4.5-fold lower than that of the compound before. The same measure for `Cc1ccc(S(=O)(=O)Nc2ccc3c(c2)OC(CN[C@H](C)c2ccccc2)CC3)cc1` (stereo partly drawn) [Example 37, 4-methyl-N-[2-({[(1R)-1-phenylethyl]amino}methyl)-3,4-dihydro-2H-chromen-7-yl]benzenesulfonamide]: 16 nM; for `C[C@@H](NCC1CCc2ccc(NS(=O)(=O)c3cccc4nonc34)cc2O1)c1ccccc1` (stereo partly drawn) [Example 32, N-[2-({[(1R)-1-Phenylethyl]amino}methyl)-3,4-dihydro-2H-chromen-7-yl]-2,1,3-benzoxadiazole-4-sulfonamide]: 5 nM.
